# Experimental data: PMC7162861, “Synthesis, cytotoxicity, pharmacokinetic profile, binding with DNA and BSA of new imidazo[1,2-a]pyrazine-benzo[d]imidazol-5-yl hybrids” (Scientific Reports, 2020)
# Columns and labels:
# [1] = Experimental log P, shake-flask method; type: physicochemical; details: n-octanol/phosphate buffer pH 7.4, read-out: Exp. Log P
# Method: Partition coefficients or experimental log P values of all synthesized compounds (9–23, 30 and 31) were calculated using the shake-flask method. Log P values were determined using n-octanol and phosphate buffer (pH = 7.4) at 10:1 ratio of volumes. Stock solutions (10^−3 M) of compounds were prepared in DMSO. Glass vials were used to make final solutions i.e. stock solution (250 µL) and phosphate buffer (125 µL). To record the absorbance, wavelength was selected based on λmax of the respective compound. Initial absorbance (Ai) for every compound was noted consuming the stock solution in the buffer phase. Now added n-octanol to every vial and shaken well using a mechanical shaker for 50 minutes. To get separation of both phases, glass vials were centrifuged for 35 min. at 2500 rpm. Then, the layer of octanol was separated from glass vial. The final absorbance (Af) of each compound was recorded by using the buffer layer. The values of P for compounds were determined by the following equation (Eq. 8):8 P=Ai−Af/Af×Vw/Vo
compound,measurement,setting,value
"O=Cc1ccc(-c2cn3ccnc3c(-c3ccc4c(c3)ncn4C3CCCCC3)n2)cc1 [Compound 11, 4-(8-(1-cyclohexyl-1H-benzo[d]imidazol-5-yl)imidazo[1,2-a]pyrazin-6-yl)benzaldehyde]",melting point,,201 to 203 °C
same,logP,[1],0.23
